Reference: US20100305068A1, “COMPOUNDS AND METHODS FOR MODULATING PROTEIN TRAFFICKING” (priority 2006, published 2010)
Where two headings read alike, the source gives them in different places.

System: pdr5 ypt1^ts cells
Experiment: microbe, parasite or virus in culture
Type: cell-based, yeast
Conditions: for minimal effective concentration / optical density, ypt1-ts, 0.39 / optical density, ypt1-ts, 0.78 / optical density, ypt1-ts, 1.56 / optical density, ypt1-ts, 3.13 / optical density, ypt1-ts, 6.25 / optical density, ypt1-ts, 12.5 / optical density, ypt1-ts, 25: Table 2; for minimal effective concentration: lowest concentration tested giving growth above the 0 μM background, read-out: ypt1-ts MRC (minimal rescue concentration); for optical density, ypt1-ts, 0.39: 0.39 μM compound; for optical density, ypt1-ts, 0.39 / optical density, ypt1-ts, 0.78 / optical density, ypt1-ts, 1.56 / optical density, ypt1-ts, 3.13 / optical density, ypt1-ts, 6.25 / optical density, ypt1-ts, 12.5 / optical density, ypt1-ts, 25: background (0 μM) 0.058; for optical density, ypt1-ts, 0.78: 0.78 μM compound; for optical density, ypt1-ts, 1.56: 1.56 μM compound; for optical density, ypt1-ts, 3.13: 3.13 μM compound; for optical density, ypt1-ts, 6.25: 6.25 μM compound; for optical density, ypt1-ts, 12.5: 12.5 μM compound; for optical density, ypt1-ts, 25: 25 μM compound
How it was run: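 Whole-cell yeast growth-rescue screen: pdr5 ypt1^ts cells (efflux pump inactivated), growth-arrested at 37° C., cultured with compounds at 37° C. Restoration of growth read by optical density.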

[1] = Saccharomyces cerevisiae, 37° C.
[2] = Table 3, 3.13 uM compound, 37° C., background (0 uM) 0.077
[3] = Table 3, 12.5 uM compound, 37° C., background (0 uM) 0.077
[4] = Table 3, 50 uM compound, 37° C., background (0 uM) 0.077

Molecule	minimal effective concentration [1] [µM]	optical density, ypt1-ts, 0.39 (37° C.)	optical density, ypt1-ts, 0.78 (37° C.)	optical density, ypt1-ts, 1.56 (37° C.)	optical density, ypt1-ts, 3.13 (37° C.)	optical density, ypt1-ts, 6.25 (37° C.)	optical density, ypt1-ts, 12.5 (37° C.)	optical density, ypt1-ts, 25 (37° C.)	optical density, 3.13 uM [2]	optical density, 12.5 uM [3]	optical density, 50 uM [4]	minimal effective concentration (37° C.) [µM]	optical density, 3.13 uM	optical density, 12.5 uM	optical density, 50 uM
C/C=C(\C)C(=O)O[C@@H]1c2c(ccc3ccc(=O)oc23)OC(C)(C)[C@@H]1OC(C)=O [PTERYXIN]	6.25	0.103	0.078	0.096	0.124	0.134	0.26	0.479							
COc1ccc(/C=C/c2cc(O)cc(O)c2)cc1 [RESVERA- TROL 4′- METHYL ETHER]									0.08	0.103	0.331				
C[n+]1cc2c3c(ccc2c2ccc4cc5c(cc4c21)OCO5)OCO3.O=S(=O)([O-])O [SANGUINARINE SULFATE]	12.5	0.092	0.076	0.077	0.089	0.111	0.165	0.345							
CC1=CC(=O)[C@H]2C(C)(C)CCC[C@]2(C)[C@@]1(O)CCc1ccoc1 [SOLIDAGENONE]	6.25	0.092	0.077	0.086	0.11	0.141	0.439	0.62							
CCCCC1(COC(=O)CCC(=O)O)C(=O)N(c2ccccc2)N(c2ccccc2)C1=O [SUXIBUZONE, reference compound]	3.13	0.101	0.078	0.093	0.127	0.173	0.329	0.536							
COC(=O)C(O)[C@H]1C(C)(C)[C@@H](OC(C)=O)[C@@H]2CC3=C4CC(=O)O[C@@H](c5ccoc5)[C@]4(C)CCC3[C@]1(C)C2=O (stereo partly drawn) [SWIETENOLIDE- 3-ACETATE]									0.425	0.629	0.619				
C=CCC1(C(C)CCC)C(=O)N=C([S-])NC1=O.[Na+] (stereo not drawn) [THIAMYLAL SODIUM, reference compound]	12.5	0.089	0.071	0.089	0.101	0.103	0.162	0.209							
CC1(C)C(=O)C=C[C@]2(C)C3CC[C@@]4(C)[C@H](c5ccoc5)C[C@H]5O[C@]54C3[C@H](O)CC12 (stereo partly drawn) [TRI- CHILENONE]									0.119	0.283	0.462				
CC(CCC(=O)O)[C@H]1CCC2C3C(CC[C@@]21C)[C@@]1(C)CC[C@@H](O)C[C@H]1C[C@@H]3O (stereo partly drawn) [URSODIOL, reference compound]									0.202	0.41	0.523				
O=c1c2ccccc2oc2ccccc12 [XANTHONE]	6.25	0.096	0.072	0.093	0.109	0.152	0.445	0.598							
Nc1nc2ncc(=O)[nH]c2c(=O)[nH]1 [XANTHOP- TERIN]									0.101	0.23	0.073				
C=C1C2CC[C@@]3(C)[C@H](c4ccoc4)OC(=O)C[C@]13O[C@H]1CC(=O)C(C)(C)C(CC(=O)OC)C21C (stereo partly drawn) [[…], METHYL ESTER]	3.13	0.119	0.087	0.107	0.21	0.53	0.56	0.577							
AKLAVINE HYDROCHLORIDE		0.095	0.136	0.078	0.088	0.101	0.145	0.246				12.5			
AVOCATIN A									0.351	0.06	0.036				
AVOCATIN B									0.451	0.032	0.032				
CHLORO- PHYLLIDE Cu COMPLEX Na SALT									0.064	0.054	0.305				
DACTINOMYCIN [reference compound]		0.093	0.071	0.082	0.104	0.351	0.663	0.669				6.25			
FUSIDIC ACID [reference compound]		0.095	0.081	0.084	0.107	0.137	0.296	0.52				6.25			
NIMESULIDE [reference compound]													0.098	0.147	0.539
NIMODIPINE [reference compound]		0.097	0.081	0.096	0.113		0.178	0.27				12.5			
